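A five-concentration, 48-hour dose response in 96-well plates underlies each endpoint, interpolated linearly between surrounding concentrations. At the GI50, growth is halved.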 Active and inactive are the calls of the source. No stated cut-off is given here; in the data, active = GI50 up to about 1.1 µM and inactive = higher.
Legend:
Assay in all cases: NCI-60 cell line screen, 48 h
[1] = system: HT-29
[2] = system: SK-MEL-28
[3] = system: U-251
[4] = system: MDA-MB-435
[5] = system: NCI-H522
[6] = system: LOX IMVI
[7] = system: SK-MEL-2
[8] = system: M14
[9] = system: PC-3
[10] = system: SF-268
[11] = system: UO-31
[12] = system: SK-OV-3
[13] = system: HCC 2998
[14] = system: SN12C
[15] = system: 786-0
[16] = system: EKVX
[17] = system: DU-145
[18] = system: SNB-75
[19] = system: UACC-62
[20] = system: UACC-257
[21] = system: NCI-H226
[22] = system: A549
[23] = system: HOP-92
[24] = system: OVCAR-3
[25] = system: KM12
[26] = system: NCI-H23
[27] = system: SK-MEL-5
[28] = system: SF-539
[29] = system: OVCAR-5
[30] = system: CAKI-1
[31] = system: COLO 205
[32] = system: NCI/ADR-RES
[33] = system: HCT-116
[34] = system: HOP-62
[35] = system: MDA-MB-231
[36] = system: A498
[37] = system: OVCAR-4
[38] = system: MCF7
[39] = system: BT-549
[40] = system: K562
[41] = system: RXF 393
[42] = system: MDA-N
[43] = system: Hs-578T
[44] = system: SW-620
[45] = system: SNB-19
[46] = system: NCI-H460
[47] = system: Malme-3M
[48] = system: ACHN
[49] = system: SF-295
[50] = system: IGROV-1
[51] = system: TK-10
[52] = system: OVCAR-8
[53] = system: SR
[54] = system: CCRF-CEM
[55] = system: RPMI-8226
[56] = system: T47D
[57] = system: HL-60
[58] = system: HCT-15
[59] = system: MOLT-4

c1ccc2c(c1)Nc1cccc3c1c-2nc1cc2ccccc2cc13
GI50 [1]: 1720 nM (inactive)
GI50 [2]: 1740 nM (inactive)
GI50 [3]: 2030 nM (inactive)
GI50 [4]: 2000 nM (inactive)
GI50 [5]: 1980 nM (inactive)
GI50 [6]: 1550 nM (inactive)
GI50 [7]: 1480 nM (inactive)
GI50 [8]: 2120 nM (inactive)
GI50 [9]: 1530 nM (inactive)
GI50 [10]: 1710 nM (inactive)
GI50 [11]: 1630 nM (inactive)
GI50 [12]: 1640 nM (inactive)
GI50 [13]: 1720 nM (inactive)
GI50 [14]: 1690 nM (inactive)
GI50 [15]: 1720 nM (inactive)
GI50 [16]: 1550 nM (inactive)
GI50 [17]: 1700 nM (inactive)
GI50 [18]: 1410 nM (inactive)
GI50 [19]: 2120 nM (inactive)
GI50 [20]: 1580 nM (inactive)
GI50 [21]: 1850 nM (inactive)
GI50 [22]: 1800 nM (inactive)
GI50 [23]: 1510 nM (inactive)
GI50 [24]: 1590 nM (inactive)
GI50 [25]: 1620 nM (inactive)
GI50 [26]: 1320 nM (inactive)
GI50 [27]: 1700 nM (inactive)
GI50 [28]: 1800 nM (inactive)
GI50 [29]: 1820 nM (inactive)
GI50 [30]: 1640 nM (inactive)
GI50 [31]: 1630 nM (inactive)
GI50 [32]: 2200 nM (inactive)
GI50 [33]: 1750 nM (inactive)
GI50 [34]: 1720 nM (inactive)
GI50 [35]: 1100 nM (active)
GI50 [36]: 2880 nM (inactive)
GI50 [37]: 1870 nM (inactive)
GI50 [38]: 1560 nM (inactive)
GI50 [39]: 12400 nM (inactive)
GI50 [40]: 513 nM (active)
GI50 [41]: 1570 nM (inactive)
GI50 [42]: 1450 nM (inactive)
GI50 [43]: 2240 nM (inactive)
GI50 [44]: 1530 nM (inactive)
GI50 [45]: 1750 nM (inactive)
GI50 [46]: 1650 nM (inactive)
GI50 [47]: 1690 nM (inactive)
GI50 [48]: 1530 nM (inactive)
GI50 [49]: 1600 nM (inactive)
GI50 [50]: 1410 nM (inactive)
GI50 [51]: 1870 nM (inactive)

CCOC(=O)/C=C(/C(=O)OCC)n1cc(Cl)c(=O)n(CC(=O)OCC)c1=O
GI50 [52]: 4530 nM (inactive)
GI50 [1]: 4560 nM (inactive)
GI50 [2]: 5020 nM (inactive)
GI50 [53]: 5240 nM (inactive)
GI50 [3]: 5830 nM (inactive)
GI50 [4]: 4950 nM (inactive)
GI50 [5]: 1450 nM (inactive)
GI50 [6]: 4370 nM (inactive)
GI50 [7]: 4840 nM (inactive)
GI50 [8]: 4570 nM (inactive)
GI50 [9]: 4760 nM (inactive)
GI50 [10]: 7050 nM (inactive)
GI50 [12]: > 25000 nM (inactive)
GI50 [14]: 5640 nM (inactive)
GI50 [15]: 828 nM (active)
GI50 [16]: 5270 nM (inactive)
GI50 [17]: 4610 nM (inactive)
GI50 [18]: 5130 nM (inactive)
GI50 [19]: 4530 nM (inactive)
GI50 [20]: 4940 nM (inactive)
GI50 [21]: > 25000 nM (inactive)
GI50 [22]: 6410 nM (inactive)
GI50 [54]: 444 nM (active)
GI50 [23]: 5150 nM (inactive)
GI50 [24]: 5980 nM (inactive)
GI50 [25]: > 25000 nM (inactive)
GI50 [26]: 5740 nM (inactive)
GI50 [27]: 5660 nM (inactive)
GI50 [28]: 5040 nM (inactive)
GI50 [29]: 4520 nM (inactive)
GI50 [30]: 3940 nM (inactive)
GI50 [31]: 787 nM (active)
GI50 [32]: 8950 nM (inactive)
GI50 [33]: 4970 nM (inactive)
GI50 [34]: 22400 nM (inactive)
GI50 [35]: 5710 nM (inactive)
GI50 [36]: 17500 nM (inactive)
GI50 [37]: 6030 nM (inactive)
GI50 [55]: 2470 nM (inactive)
GI50 [56]: 4810 nM (inactive)
GI50 [38]: 22900 nM (inactive)
GI50 [57]: 3850 nM (inactive)
GI50 [39]: 5920 nM (inactive)
GI50 [40]: 2100 nM (inactive)
GI50 [41]: 4570 nM (inactive)
GI50 [58]: 5460 nM
GI50 [42]: 5810 nM (inactive)
GI50 [44]: 995 nM (active)
GI50 [45]: > 25000 nM (inactive)
GI50 [46]: 9020 nM (inactive)
GI50 [59]: 1150 nM (inactive)
GI50 [47]: 6110 nM (inactive)
GI50 [48]: 3400 nM (inactive)
GI50 [49]: > 25000 nM (inactive)
GI50 [50]: 4760 nM (inactive)
GI50 [51]: 4140 nM (inactive)

From ChEMBL document CHEMBL1201862, “PubChem BioAssay data set” (2004)
